This is an account of results in patent US8258305B2, “Dopamine transporter inhibitors for use in treatment of movement disorders and other CNS indications” (Prexa Pharmaceuticals, Inc., priority 2005, dated 2012).

For data set [1], the target named is T1, NET (Homo sapiens, UniProt P23975).
T1 construct: expressed in transfected cells; host or cells: MDCK
Description: Functional norephinephrine uptake inhibition, MDCK cell line. The data set is classed as cell-based. As for the experimental part: (§1) Functional activity of the compounds was determined in vitro in cellular assays using recombinant human cell lines.

The target of the next data set is T2, 5-HT (serotonine uptake) (Homo sapiens, UniProt P31645).
T2 construct: expressed in transfected cells; host or cells: HEK-293
It is filed as cell-based. Conditions: functional uptake. As for the experimental part: as §1

A further data set addresses T3, DAT (Homo sapiens, UniProt Q01959).
T3 construct: expressed in transfected cells
The data set is classed as cell-based. Conditions: functional uptake. As for the experimental part: as §1

In a further data set the test system is rat. The data set is described as follows: Acute single-dose toxicology (maximum tolerated dose). It is filed as in vivo. Conditions: for observed toxicological effects: rat (n = 5), i.v., observed for 72 hours. On the procedure:
An in vivo evaluation was carried out to determine the maximum tolerated dose of numerous test compounds in rat. The compounds were administered i.v., and the animals were then observed for 72 hours.
Briefly, experimental rats, in groups of 5 animals, were administered with various doses of respective DAT inhibitors (e.g. 30, 90, 120, and 200 mg/kg), and the observed toxicological effects were recorded.

Data set [2] deals with rat (immobility in forced swim test). The data set is described as follows: Forced swim test (behavioral despair assay). The data set is classed as in vivo. The source says:
The objective of this study was to assess the antidepressant effects of test compounds in the behaviral despair assay in rats using a modification of a method described by Porsolt R. D. et al. in Behavioral despair in rats: a new model sensitive to antidepressant treatment, Eur. J. Pharmacol., 47: 379-391, 1978; Porsolt et al., Nature 266: 730-732, 1977; and Porsolt et al., in Psychopharmacology, Olivier, Mos, and Slangen (eds) Birkhauser Verlag, Basel, pp. 137-159, 1991. Briefly, when mice (or rats) are forced to swim in a cylinder from which no escape is possible, they readily adopt a characteristic immobile posture and make no further attempts to escape except for small movements needed to keep floating. The immobility is considered by some to reflect a “depressive mood” (Porsolt et al., Nature 266: 730-732, 1977) in which animals cease to struggle to escape the aversive situation. The immobility induced by the procedure is influenced by a wide variety of antidepressants (Porsolt et al., in Psychopharmacology, Olivier, Mos, and Slangen (eds). Birkhauser. Verlag, Basel, pp. 137-159, 1991) and has a good predictive validity in that it detects antidepressants with different mechanisms of action (TCAs, SSRIs, MAOIs, and other atypical ones). The test is sensitive to muscle-relaxant (benzodiazepines) and sedative (neuroleptics) effects, leading to enhanced immobility (Porsolt et al., supra).
In a typical experiment, animals are placed singly into a cylinder (e.g. 46×30 cm) containing fresh water at about 20° C. for 6 minutes. The activity (or immobility) of the animal is measured by an observer minute by minute. In more detail, the animals were preconditioned in a pretest session, where the rats were individually forced to swim inside a vertical plexiglass cylinder containing water maintained at 19-20° C. After 15 minutes in the water, they were allowed to dry for 15 minutes in a heated enclosure. Twenty four hours later, the compounds were administered either intraperitoneally or orally to the animals. One hour after administration of the test compound, animals were put back into the cylinder containing water. The total duration of immobility was measured during the last 4 minutes of a 6 minute test.
The results are expressed as the percentage of variation of the total duration of immobility calculated from the mean value of the vehicle-treated group (% variation=[(immobility duration of vehicle−immobility duration of test compound)/(immobility duration of vehicle)]×100%). Only compounds which exibit a statistically significant variation (e.g. >30%) are considered effective in this in vivo model.
Sibutramine (2.0 and 2.5 mg/kg), Bupropion (7.5 and 10 mg/kg), and Imipramine (30 mg/kg) were similarly administered as controls. […] Asterisks indicate highly statistical significant results.
A fourth DAT inhibitor, CNS-28,002 was administered p.o. as a racemic mixture of diastereomers at either 35 or 75 mg/kg. Sibutramine (5.0 and 3.75 mg/kg), Bupropion (30 and 40 mg/kg), and Imipramine (100 mg/kg) were similarly administered as controls.
Sibutramine (5.0 and 3.75 mg/kg), Bupropion (30 and 40 mg/kg), and Imipramine (100 mg/kg) were similarly administered as controls.

A further data set has as its system Sprague-Dawley rats. The data set is described as follows: 7-day multidose oral dosing toxicology study. The conditions noted are these: 7 days; for observed symptoms: Sprague-Dawley rats (n = 6; 3M/3F), oral. On the procedure: The oral doses tested are 50 mg/kg/day, 100 mg/kg/day, 200 mg/kg/day, and 400 mg/kg/day.
Data set [3] deals with NET (Rattus norvegicus, UniProt Q63380). The data set is described as follows: Functional uptake profile, rat NET. The data set is classed as cell-based.
Where [4] appears, read: single dose 200 mg/kg, 200 mg/kg.
[5] abbreviates: p.o., 35 or 75 mg/kg, FIG. 3 and FIG. 4.
[6] abbreviates: i.p., e.g. 7.5 and 15 mg/kg, racemic mixtures of diastereomers, FIG. 2.

“Also recorded” adds a separate entry of the source.

T3 sequence (Q01959 whole entry): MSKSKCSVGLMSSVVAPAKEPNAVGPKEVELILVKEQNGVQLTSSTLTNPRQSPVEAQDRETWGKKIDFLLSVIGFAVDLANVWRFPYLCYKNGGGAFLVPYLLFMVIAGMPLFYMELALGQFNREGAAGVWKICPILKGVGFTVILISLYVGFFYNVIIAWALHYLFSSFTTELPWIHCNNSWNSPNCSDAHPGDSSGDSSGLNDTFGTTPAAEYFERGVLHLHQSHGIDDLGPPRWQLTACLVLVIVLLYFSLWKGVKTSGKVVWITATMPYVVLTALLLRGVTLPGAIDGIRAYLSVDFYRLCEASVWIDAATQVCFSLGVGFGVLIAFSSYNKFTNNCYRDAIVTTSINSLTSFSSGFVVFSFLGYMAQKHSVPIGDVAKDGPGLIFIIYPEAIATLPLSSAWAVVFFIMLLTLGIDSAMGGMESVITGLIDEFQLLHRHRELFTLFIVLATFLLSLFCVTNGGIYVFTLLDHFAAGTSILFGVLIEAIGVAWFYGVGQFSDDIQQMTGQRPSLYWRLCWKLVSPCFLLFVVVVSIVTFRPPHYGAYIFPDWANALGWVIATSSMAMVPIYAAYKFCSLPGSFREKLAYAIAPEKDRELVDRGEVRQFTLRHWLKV
T1 sequence (P23975 whole entry): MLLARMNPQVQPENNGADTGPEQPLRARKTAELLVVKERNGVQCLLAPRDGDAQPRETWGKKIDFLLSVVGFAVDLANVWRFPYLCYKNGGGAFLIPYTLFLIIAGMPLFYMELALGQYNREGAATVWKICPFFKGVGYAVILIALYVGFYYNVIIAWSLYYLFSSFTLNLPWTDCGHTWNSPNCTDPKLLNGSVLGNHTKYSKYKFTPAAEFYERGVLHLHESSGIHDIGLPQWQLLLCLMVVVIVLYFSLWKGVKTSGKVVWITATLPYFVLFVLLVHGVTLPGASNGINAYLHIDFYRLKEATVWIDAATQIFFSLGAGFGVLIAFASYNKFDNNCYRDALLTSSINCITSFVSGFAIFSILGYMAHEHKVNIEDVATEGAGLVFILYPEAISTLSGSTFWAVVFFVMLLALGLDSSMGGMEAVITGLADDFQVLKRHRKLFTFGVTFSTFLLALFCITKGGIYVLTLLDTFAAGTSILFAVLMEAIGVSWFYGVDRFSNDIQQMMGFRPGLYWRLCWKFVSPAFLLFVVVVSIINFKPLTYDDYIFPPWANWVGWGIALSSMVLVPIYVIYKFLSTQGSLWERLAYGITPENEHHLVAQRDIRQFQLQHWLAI
T2 sequence (P31645 whole entry): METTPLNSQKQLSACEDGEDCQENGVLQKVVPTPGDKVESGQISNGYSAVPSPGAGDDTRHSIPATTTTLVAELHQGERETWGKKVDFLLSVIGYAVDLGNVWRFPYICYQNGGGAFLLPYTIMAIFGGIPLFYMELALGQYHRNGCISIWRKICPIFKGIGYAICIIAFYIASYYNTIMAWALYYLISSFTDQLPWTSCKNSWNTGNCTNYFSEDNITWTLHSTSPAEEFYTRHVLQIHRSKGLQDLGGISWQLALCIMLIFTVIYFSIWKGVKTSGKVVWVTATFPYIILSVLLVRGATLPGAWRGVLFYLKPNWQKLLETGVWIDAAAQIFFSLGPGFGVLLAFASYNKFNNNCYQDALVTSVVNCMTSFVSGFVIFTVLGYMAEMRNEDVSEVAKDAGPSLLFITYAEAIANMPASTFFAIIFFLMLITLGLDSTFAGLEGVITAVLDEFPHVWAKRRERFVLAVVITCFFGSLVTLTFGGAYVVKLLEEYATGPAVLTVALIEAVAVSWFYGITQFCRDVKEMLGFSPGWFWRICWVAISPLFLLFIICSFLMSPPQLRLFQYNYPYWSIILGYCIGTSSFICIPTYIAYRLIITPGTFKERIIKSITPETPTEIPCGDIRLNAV
Chain of NET (Rattus norvegicus, UniProt Q63380) (Q63380 1-617): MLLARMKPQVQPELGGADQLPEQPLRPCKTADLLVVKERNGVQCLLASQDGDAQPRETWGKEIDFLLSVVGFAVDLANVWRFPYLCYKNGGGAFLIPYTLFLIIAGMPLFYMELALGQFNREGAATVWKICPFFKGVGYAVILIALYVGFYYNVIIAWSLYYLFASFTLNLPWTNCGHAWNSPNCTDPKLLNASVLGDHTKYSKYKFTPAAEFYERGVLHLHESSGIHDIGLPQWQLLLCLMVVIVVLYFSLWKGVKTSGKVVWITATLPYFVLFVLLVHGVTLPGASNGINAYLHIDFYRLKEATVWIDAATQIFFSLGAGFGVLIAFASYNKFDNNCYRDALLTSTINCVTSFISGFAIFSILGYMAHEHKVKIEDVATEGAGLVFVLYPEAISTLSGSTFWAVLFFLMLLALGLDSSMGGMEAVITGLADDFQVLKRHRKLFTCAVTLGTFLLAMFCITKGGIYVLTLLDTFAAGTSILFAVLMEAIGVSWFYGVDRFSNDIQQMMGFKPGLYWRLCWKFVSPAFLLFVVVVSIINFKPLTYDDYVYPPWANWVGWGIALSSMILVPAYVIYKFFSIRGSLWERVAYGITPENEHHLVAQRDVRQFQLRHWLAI

Regarding `CC(C)C[C@@H](N)C1(c2ccc(Cl)cc2)CCC1` [R-DDMS], the EC50 (as a rule, the concentration needed to bring the measured effect to its halfway point) at NET [1] amounted to 200 nM; at 5-HT (serotonine uptake), 1500 nM; on DAT it was 100 nM.
On to `CC1C(COc2ccc(C(F)(F)F)cc2)CCCN1CC(O)C1(c2ccc(Cl)cc2)CCC1` (centres unmarked) [CNS-28,002], for which the observed toxicological effects entry in the data set on rat (setting [4]) is “no observed symptoms”. The “in vivo efficacy in forced swim test compared with commercial drugs” value in data set [2] (setting [5]) is “performed equally well, if not better, than the commercial drugs Sibutramine, Bupropion, and Imipramine”.
On to `CN[C@H](CC(C)C)C1(c2ccc(Cl)cc2)CCC1` [R-DMS], for which the EC50 at NET [1] came to 300 nM; on 5-HT (serotonine uptake), 1500 nM; on DAT it was 30 nM.
For `CC(C)CC(N(C)C)C1(c2ccc(Cl)cc2)CCC1` (centres unmarked) [Sibutramine], the observed symptoms entry in the data set on Sprague-Dawley rats (100 mg/kg/day) was “decreased grip strength, depression”; in the data set on Sprague-Dawley rats (400 mg/kg/day), “convulsions; also recorded: Convulsions;”. The “deaths (number of animals)” value in the data set with Sprague-Dawley rats (n = 6, oral, 200 mg/kg/day) turned out to be 2 deaths. Moreover, the “self mutilation (number of animals)” value with Sprague-Dawley rats (n = 6, oral, 200 mg/kg/day) stood at 6 self mutilation.
For `CC1CCN(CC2(c3ccc(Cl)cc3)CCC2)CC1COc1ccc(C(F)(F)F)cc1` (centres unmarked) [CNS-27,100], the observed toxicological effects result with rat (setting [4]) was “decreased grip strength, and slight depression”. Besides, in the data set with rat (rat, single dose), the “doses tolerated well with no significant observed symptoms” value is listed as “below 120 mg/kg”. The “in vivo efficacy in forced swim test compared with commercial drugs” value was “performed equally well, if not better, than the commercial drugs Sibutramine, Bupropion, and Imipramine” in data set [2] (setting [6]); “performed equally well, if not better, than the commercial drugs Sibutramine, Bupropion, and Imipramine” in data set [2] (setting [5]). The molecule further registered an EC50 on NET [3] of 1000 nM.
`CC1CCC(COc2ccc(C(F)(F)F)cc2)CN1CC1(c2ccc(Cl)cc2)CCC1` (centres unmarked) [CNS-28,100]: the “in vivo efficacy in forced swim test compared with commercial drugs” value in data set [2] (setting [6]) was “performed equally well, if not better, than the commercial drugs Sibutramine, Bupropion, and Imipramine”. Also, the EC50 on NET [3] turned out to be 300 nM.
For the molecule `CC1CCC(COc2ccc(C(F)(F)F)cc2)CN1CC(O)C1(c2ccc(Cl)cc2)CCC1` (centres unmarked) [CNS-28,200], the observed toxicological effects entry in the data set with rat (single dose 120 mg/kg, 120 mg/kg) is “decreased grip strength and limb tone and convulsions”; with rat (setting [4]) it was “Convulsions”. For the same molecule, the “toxic dose relative to the effective dose shown in FIG. 2” value in the data set on rat (rat, dose with convulsions vs forced swim test effective dose) is “about 10 times”. For the same molecule, the “in vivo efficacy in forced swim test compared with commercial drugs” value in data set [2] (setting [6]) is “performed equally well, if not better, than the commercial drugs Sibutramine, Bupropion, and Imipramine”.
